Assay results from PubChem BioAssay AID248 (DTP/NCI, 2004).
“And” between values parts separate entries of the source, which are not always exact repeats. Equal values may be shown once. Inconclusive results and toxic doses are left out. Cut-off read from the data, not from the text of the source: active = T/C of 150% or more; inactive = T/C below 125%.

System: L1210 leukemia ip in BDF1 mice, survival T/C
Assay: NCI In Vivo Anticancer Drug Screen. Data for tumor model L1210 Leukemia (intraperitoneal) in B6D2F1 (BDF1) mice
Details: endpoint: mean survival time, higher = longer survival
Procedure, shortened: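 Value reflects the ratio of survival in compound-treated mice to survival in vehicle-treated controls, with both groups carrying the same transplanted tumor.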

[1] = dose: 100.0 mg/kg/injection, schedule: Q01DX009 (ip), vehicle: Klucel (hydroxypropylcellulose) (HPC)
[2] = dose: 100.0 mg/kg/injection, schedule: Q04DX003 (ip), vehicle: Klucel (hydroxypropylcellulose) (HPC)
[3] = dose: 200.0 mg/kg/injection, schedule: Q01DX009 (ip), vehicle: Klucel (hydroxypropylcellulose) (HPC)
[4] = dose: 200.0 mg/kg/injection, schedule: Q04DX003 (ip), vehicle: Klucel (hydroxypropylcellulose) (HPC)
[5] = dose: 100.0 mg/kg/injection, schedule: Q01DX001 (ip), vehicle: saline
[6] = dose: 200.0 mg/kg/injection, schedule: Q01DX001 (ip), vehicle: saline
[7] = dose: 400.0 mg/kg/injection, schedule: Q01DX001 (ip), vehicle: saline
[8] = dose: 100.0 mg/kg/injection, schedule: Q01DX001 (ip), vehicle: carboxymethylcellulose (CMC)
[9] = dose: 200.0 mg/kg/injection, schedule: Q01DX001 (ip), vehicle: carboxymethylcellulose (CMC)
[10] = dose: 400.0 mg/kg/injection, schedule: Q01DX001 (ip), vehicle: carboxymethylcellulose (CMC)
[11] = dose: 100.0 mg/kg/injection, schedule: Q04DX002 (ip), vehicle: saline with Tween-80
[12] = dose: 200.0 mg/kg/injection, schedule: Q04DX002 (ip), vehicle: saline with Tween-80
[13] = dose: 400.0 mg/kg/injection, schedule: Q04DX002 (ip), vehicle: saline with Tween-80
[14] = dose: 100.0 mg/kg/injection, schedule: Q01DX009 (ip), vehicle: saline with Tween-80
[15] = dose: 200.0 mg/kg/injection, schedule: Q01DX009 (ip), vehicle: saline with Tween-80
[16] = dose: 400.0 mg/kg/injection, schedule: Q01DX009 (ip), vehicle: saline with Tween-80
[17] = dose: 400.0 mg/kg/injection, schedule: Q04DX003 (ip), vehicle: Klucel (hydroxypropylcellulose) (HPC)

Measured: T/C

CN(CCS(=O)(=O)O)/N=C/c1ccc2c(c1)OCO2
inactive: dose: 25.0 mg/kg/injection, schedule: Q01DX009 (ip), vehicle: alcohol 112 % of control | dose: 50.0 mg/kg/injection, schedule: Q01DX009 (ip), vehicle: alcohol 102 % of control | dose: 100.0 mg/kg/injection, schedule: Q01DX001 (ip), vehicle: saline with Tween-80 92 % of control | dose: 100.0 mg/kg/injection, schedule: Q01DX009 (ip), vehicle: alcohol 101 % of control | dose: 150.0 mg/kg/injection, schedule: Q01DX009 (ip), vehicle: Klucel (hydroxypropylcellulose) (HPC) 94 % of control | dose: 225.0 mg/kg/injection, schedule: Q01DX009 (ip), vehicle: Klucel (hydroxypropylcellulose) (HPC) 97 % of control

CC1(C)N(C(=S)Nc2ccccc2)C1(C)C
inactive: dose: 50.0 mg/kg/injection, schedule: Q01DX009 (ip), vehicle: Klucel (hydroxypropylcellulose) (HPC) 106 % of control | dose: 50.0 mg/kg/injection, schedule: Q04DX003 (ip), vehicle: Klucel (hydroxypropylcellulose) (HPC) 92 % of control | [1] 95 % of control | [2] 103 % of control | [3] 92 % of control | [4] 102 % of control

O=C(O)C[As](=O)(O)O
inactive: dose: 30.0 mg/kg/injection, schedule: Q01DX009 (ip), vehicle: saline 90 % of control | dose: 60.0 mg/kg/injection, schedule: Q01DX009 (ip), vehicle: saline 97 % of control

CC1(C)OC2C3COc4nc5c(N)ncnc5n4C(O3)C2O1 (stereo not given)
inactive: dose: 100.0 mg/kg/injection, schedule: Q01DX001 (ip), vehicle: steriod suspending solution 112 % of control | dose: 200.0 mg/kg/injection, schedule: Q01DX001 (ip), vehicle: steriod suspending solution 101 % of control | dose: 400.0 mg/kg/injection, schedule: Q01DX001 (ip), vehicle: steriod suspending solution 98 % of control

CC(C)(C)NC(=O)Nc1nccs1
inactive: dose: 100.0 mg/kg/injection, schedule: Q01DX009 (ip), vehicle: other 100 % of control | dose: 200.0 mg/kg/injection, schedule: Q01DX009 (ip), vehicle: other 107 % of control

CC(=O)OC1=CC2(OC(C)=O)CC1C1C(=O)OC(=O)C12 (stereo not given)
inactive: [5] 101 % of control | dose: 100.0 mg/kg/injection, schedule: Q04DX003 (ip), vehicle: saline 96 % of control | [6] 98 % of control | dose: 200.0 mg/kg/injection, schedule: Q04DX003 (ip), vehicle: saline 96 % of control | [7] 88 % of control | dose: 400.0 mg/kg/injection, schedule: Q04DX003 (ip), vehicle: saline 86 % of control

CN(C)CCC(O)(c1ccccc1)c1ccccc1Cl (stereo not given)
inactive: [8] 90 % of control | [9] 97 % of control | [10] 94 % of control

CCC(C)(C1CCC(=O)CC1)C1CCC(=O)CC1
inactive: [5] 94 % of control | [6] 100 % of control | [7] 93 % of control

O=C(C1=CN(CC(O)c2ccccc2)CCC1)c1cc2ccccc2n1S(=O)(=O)c1ccccc1 (stereo not given)
inactive: [11] 97 % of control | [12] 94 % of control | [13] 94 % of control

CCCCCCCCOc1ccc(/C=N\N=C\c2ccc(OCCCCCCCC)cc2)cc1
inactive: [14] 105 % of control | [15] 91 % of control | [16] 92 % of control

CCCCCC(O)(CCCC)CCCC
inactive: [8] 104 % of control | [9] 107 % of control | [10] 102 % of control

COc1ccc(C(=O)NC(=S)Nc2ccc(O)cc2)cc1
inactive: [14] 97 % of control and 104 % of control | [11] 98 % of control | dose: 100.0 mg/kg/injection, schedule: Q04DX003 (ip), vehicle: saline with Tween-80 99 % of control | [15] 108 % of control and 109 % of control | [12] 104 % of control | dose: 200.0 mg/kg/injection, schedule: Q04DX003 (ip), vehicle: saline with Tween-80 94 % of control | [16] 98 % of control and 101 % of control | [13] 95 % of control | dose: 400.0 mg/kg/injection, schedule: Q04DX003 (ip), vehicle: saline with Tween-80 96 % of control

Cc1ccc(S(=O)(=O)OC2CCCC2OS(=O)(=O)c2ccc(C)cc2)cc1 (stereo not given)
inactive: dose: 100.0 mg/kg/injection, schedule: Q01DX001 (ip), vehicle: other 96 % of control | dose: 200.0 mg/kg/injection, schedule: Q01DX001 (ip), vehicle: other 95 % of control | dose: 400.0 mg/kg/injection, schedule: Q01DX001 (ip), vehicle: other 91 % of control

O=C(C[n+]1ccccc1)N/N=C/c1ccc(Cl)cc1
inactive: dose: 25.0 mg/kg/injection, schedule: Q01DX009 (ip), vehicle: saline with Tween-80 98 % of control | dose: 50.0 mg/kg/injection, schedule: Q01DX009 (ip), vehicle: saline with Tween-80 96 % of control | [14] 100 % of control

Cc1c([N+](=O)[O-])cc(C(C)(C)C)c(OC(=O)C(C)(C)C)c1[N+](=O)[O-]
inactive: dose: 25.0 mg/kg/injection, schedule: Q04DX002 (ip), vehicle: Klucel (hydroxypropylcellulose) (HPC) 95 % of control | dose: 50.0 mg/kg/injection, schedule: Q04DX002 (ip), vehicle: Klucel (hydroxypropylcellulose) (HPC) 100 % of control | dose: 100.0 mg/kg/injection, schedule: Q04DX002 (ip), vehicle: Klucel (hydroxypropylcellulose) (HPC) 92 % of control

CC(=O)Nc1cc2cc(Br)ccc2oc1=O
inactive: [1] 95 % of control | [3] 93 % of control

CSC(C)(S(C)(=O)=O)S(C)(=O)=O
inactive: dose: 75.0 mg/kg/injection, schedule: Q01DX001 (ip), vehicle: saline with Tween-80 102 % of control | dose: 150.0 mg/kg/injection, schedule: Q01DX001 (ip), vehicle: saline with Tween-80 96 % of control | dose: 300.0 mg/kg/injection, schedule: Q01DX001 (ip), vehicle: saline with Tween-80 98 % of control

CCc1ccc(C(=O)c2ccccc2)c2c1C(=O)c1ccccc1C2=O
inactive: [11] 91 % of control | [12] 88 % of control | [13] 102 % of control

Cn1c(=O)c2ccccc2c2ccccc21
inactive: [1] 99 % of control | [2] 100 % of control | [3] 97 % of control | [4] 100 % of control | dose: 400.0 mg/kg/injection, schedule: Q01DX009 (ip), vehicle: Klucel (hydroxypropylcellulose) (HPC) 100 % of control | [17] 105 % of control

C#CC(=O)OCC
inactive: dose: 12.5 mg/kg/injection, schedule: Q04DX003 (ip), vehicle: saline with Tween-80 103 % of control | dose: 25.0 mg/kg/injection, schedule: Q01DX001 (ip), vehicle: saline with Tween-80 105 % of control | dose: 25.0 mg/kg/injection, schedule: Q04DX003 (ip), vehicle: saline with Tween-80 106 % of control | dose: 50.0 mg/kg/injection, schedule: Q01DX001 (ip), vehicle: saline with Tween-80 108 % of control | dose: 50.0 mg/kg/injection, schedule: Q04DX003 (ip), vehicle: saline with Tween-80 119 % of control

CC(=O)Nc1cc2c(cc1Cl)-c1ccc(F)cc1C2=O
inactive: [2] 97 % of control | [4] 103 % of control | [17] 105 % of control
